According to patent US8940704B2, “Advantageous salts of μ-opiate receptor peptides” (Cytogel Pharma, LLC, priority 2007, dated 2015):
Values after ≈ are worked out from the molar mass of the structure shown.

Legend:
[1] = Solution stability (HPLC total area normalization); format: physicochemical; settings: for Solution stability, 2 weeks at 25° C. / Solution stability, 2 weeks at 40° C. / Solution stability, Time Zero: 90:10 acetonitrile:water with 0.1% TFA; for Solution stability, Time Zero: 0.3 mg/mL
Experimental: Solution Stability. The four final salt candidates were dissolved (in duplicate) in acetonitrile: water: (90:10) with 0.1% TFA at a concentration of 0.3 mg (free base basis) per mL of solvent. The scintillation vials were sealed. One vial of each salt solution was placed in a 40™C over for 2 weeks. Another vial of each salt solution was stored at 25° C. for 2 week. These solutions (and “time zero” solutions) were analyzed for CYT-1010 by HPLC.
(§1) HPLC Analysis. Salt candidates were analyzed by total area normalization (TAN). The samples were dissolved in acetonitrile:water (90:10) with 0.1% TFA at a free base concentration of 0.3 mg/mL.
(§2) • HPLC column: YMC-Pack ODS-A 150 mm, 4.6 mm, 5 micron • Guard Column (optional) None • Column Temp: 25±1° C. • Sample Temp: ambient • Autosampler Flush: 1:1 Water:CAN • Flow Rate: 1.5 mL/min • Injection Volume: 7 μL • UV Detection: 215 nm • Run Time: 32 minutes • Analysis Time: 32 minutes • Mobil Phase: A—0.1% TFA in water • B—0.1% TFA in CAN • Gradient Puym Program*: […]
The solution stability characteristics were evaluated by collecting HPLC data on solutions stored in sealed vials for two weeks at approximately 25 and 40° C. The storage solution consisted of 90:10 acetronitrile:water with 0.1% TFA which is the diluent for the HPLC assay.

[2] = Solid state stability (HPLC total area normalization); format: physicochemical; settings: for Solid state stability, 2 weeks at 25° C. / Solid state stability, 2 weeks at 60° C.: sealed vial
Experimental: Solid State Stability. Power samples of the four final salt candidates were transferred (in duplicate) to scintillation vials and sealed. One vial of each salt was placed in a 60° C. over for 2 week. Another vial of each salt was stored at 25° C. for 2 week. These samples (and “time zero” solutions) were analyzed for CYT-1010 by HPLC.
as §1, §2
The solid state stability characteristics were evaluated by collecting HPLC data on salt samples stored in sealed vials at 25 and 60° C. for two weeks.

[3] = Photostability (ICH option 2 UV, HPLC); format: physicochemical; settings: for Photostability, 2 weeks UV Exposed: ICH option 2 UV; for Photostability, 2 weeks UV Exposed / Photostability, 2 weeks Dark Control: about 25° C.; for Photostability, 2 weeks Dark Control: covered with aluminum foil; for decrease in area %, photostability: from time zero to UV exposed
Experimental: Photo Stability. Samples of the four final salt candidates were transferred (in duplicate) to crystallizing dishes and sealed with Saran® wrap. One dish of each salt was also covered with aluminum foil (as the dark controls). Another dish of each salt was not covered with aluminum foil (as the photoexposed samples). The samples were exposed to ICH compliant option 2 UV sources to examine their stability with respect to light at approximately 25° C. Dark controls and time zero samples were also analyzed for comparison. Samples were analyzed for CYT-1010 by HPLC.
as §1, §2
Samples of the four salt candidates were exposed to ICH compliant option 2 UV sources to examine their stability with respect to light at approximately 25° C. Dark controls were also analyzed for comparison.

[4] = Oxidation stability (pure oxygen atmosphere, HPLC); format: physicochemical
Experimental: Oxidation Stability. Samples of the four final salt candidates were exposed to a pure oxygen atmosphere for 2 weeks to examiner their stability with respect to oxidation at 25° C. Samples were analyzed for CYT-1010 by total area normalization for impurity profile by HPLC.
as §1, §2
Samples of the four salts were exposed to a pure oxygen atmosphere to examine their stability with respect to oxidation at 25° C.

[5] = Dynamic vapor sorption (DVS); format: physicochemical; settings: 25° C.
Experimental: Dynamic Vapor Sorption (DVS) (Performed by Surface Measurement Systems Ltd., Allentown, Pa.). Samples were run in an automated dynamic vapor sorption analyzer from 0 to 95% relative humidity and back to 0% relative humidity at 25° C. in 5% RH steps. Samples were predried (to constant mass) under a dry nitrogen stream before analysis. Weight change as a function of humidity and time was recorded to construct a moisture isotherm and kinetic plot of water sorption and desorption. Sample masses were generally in the range of 1-5 mg.

[6] = HPLC impurity profile at time zero; format: physicochemical
Experimental: as §1, §2
The scaled-up aspartate, hydrochloride, lactate, and maleate salts together with the free base were analyzed in duplicate by total area normalization (TAN) to determine their impurity profiles. […] The salts were also stressed in solution using heat.
Samples were prepared at a free base concentration of 0.3 mg/mL. The diluent for all sample preparations was 90:10 acetronitrile:water with 0.1% TFA. All solutions were sonicated for at least five minutes prior to analysis. Analysis was done over four days. The impurity profile of the free base, as shown in the table below, was consistent over this time.
Time Zero. Some observations were made concerning the HPLC impurity profile of the free base and salt samples. First, impurities at 0.89, 0.92, 1.02, and 1.03 RRT (relative retention time) are detected in the time zero sample preparations of the free base and all four salts. The largest of these four impurities is the 1.02 RRT impurity which is between 0.4 and 0.5 area % in all five compounds. The maleate salt also has a very large impurity peak at time zero (2.7 area %) at 1.14 RRT. Thus the maleate salt has a relatively low area % purity of 96 area %.

physchem = settings: aqueous buffer
delta receptors = delta receptors (Homo sapiens, UniProt P41143); settings: selectivity mu over delta
delta receptors, sequence (P41143 whole entry): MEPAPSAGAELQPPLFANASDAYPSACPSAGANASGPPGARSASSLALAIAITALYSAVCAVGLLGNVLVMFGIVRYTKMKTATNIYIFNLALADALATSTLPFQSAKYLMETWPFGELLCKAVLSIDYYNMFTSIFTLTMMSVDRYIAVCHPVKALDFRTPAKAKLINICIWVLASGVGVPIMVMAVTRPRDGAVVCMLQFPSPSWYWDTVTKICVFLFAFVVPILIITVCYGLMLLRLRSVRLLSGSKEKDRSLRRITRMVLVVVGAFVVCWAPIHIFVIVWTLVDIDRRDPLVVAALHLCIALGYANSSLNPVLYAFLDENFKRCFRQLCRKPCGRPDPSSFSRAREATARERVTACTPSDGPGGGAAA

[7] = 2 weeks at 25° C. versus time zero
[8] = 2 weeks at 60° C. as compared to 25° C. data
[9] = 2 weeks pure oxygen atmosphere, 25° C.

With `NC(Cc1ccc(O)cc1)C(=O)NC1CCCCNC(=O)C(Cc2ccccc2)NC(=O)C(Cc2c[nH]c3ccccc23)NC1=O` [Free Base, H-Tyr-c-[D-Lys-Trp-Phe]] the “Solution stability, 2 weeks at 25° C.” value ([1]; 2 weeks at 25° C.) was 98.6 area %, the “Solution stability, 2 weeks at 40° C.” value ([1]; 2 weeks at 40° C.) was 98.7 area % and the “Impurity by RRT 0.21” value ([1]; solution, 2 weeks at 25° C.) was 0.50 area %. For the same compound, the “Impurity by RRT 0.89” value ([1]; solution, 2 weeks at 25° C.) was 0.06 area %, the “Impurity by RRT 0.92” value ([1]; solution, 2 weeks at 25° C.) was 0.04 area % and the “Impurity by RRT 0.95” value ([1]; solution, 2 weeks at 25° C.) was 0.06 area %. For the same compound, the “Impurity by RRT 1.02” value ([1]; solution, 2 weeks at 25° C.) was 0.53 area %, the “Impurity by RRT 1.03” value ([1]; solution, 2 weeks at 25° C.) was 0.18 area % and the “Impurity by RRT 0.21” value ([1]; solution, 2 weeks at 40° C.) was 0.50 area %. The “Impurity by RRT 0.89” value ([1]; solution, 2 weeks at 40° C.) was 0.04 area %, the “Impurity by RRT 0.95” value ([1]; solution, 2 weeks at 40° C.) was 0.03 area % and the “Impurity by RRT 1.02” value ([1]; solution, 2 weeks at 40° C.) was 0.51 area %. The “Impurity by RRT 1.03” value ([1]; solution, 2 weeks at 40° C.) was 0.18 area %, the “Solution stability, Time Zero” value [1] was 99.2 area % and the “decrease in area %, solid state stability” value [2, 7] was 0.4 area %. The “decrease in area %, solid state stability” value [2, 8] was “decreased slightly”, the “Solid state stability, Time Zero” value [2] was 99.2 area % and the “Solid state stability, 2 weeks at 25° C.” value [2] was 98.8 area %. The “Solid state stability, 2 weeks at 60° C.” value [2] was 98.7 area %, the “changes in HPLC-TAN values upon exposure to heat, light, or oxygen” value ([2]; summary of Tables 6-9) was “did not exhibit significant changes” and the “Photostability, 2 weeks UV Exposed” value [3] was 98.9 area %. For the same compound, the “Photostability, 2 weeks Dark Control” value [3] was 99.0 area %, the “Photostability, Time Zero” value [3] was 99.2 area % and the “decrease in area %, photostability” value [3] was 0.3 area %. For the same compound, the “Impurity by RRT 0.87” value [4, 9] was 0.04 area %, the “Impurity by RRT 0.89” value [4, 9] was 0.30 area % and the “Impurity by RRT 0.92” value [4, 9] was 0.20 area %. The “Impurity by RRT 0.95” value [4, 9] was 0.04 area %, the “Impurity by RRT 1.02” value [4, 9] was 0.53 area % and the “Impurity by RRT 1.03” value [4, 9] was 0.20 area %. The “Oxidation stability, 2 weeks Oxidation” value [4, 9] was 97.7 area %, the “decrease in area %, oxidative stability” value ([4]; 2 weeks pure oxygen versus time zero) was 1.5 area % and the “Oxidation stability, Time Zero” value [4] was 99.2 area %. For the same compound, the DVS water uptake ([5]; by 90% RH) was “up to 1.7 wt %”, the “Impurity by RRT 0.89” value [6] was 0.09 area % and the “Impurity by RRT 0.92” value [6] was 0.05 area %. For the same compound, the “Impurity by RRT 1.02” value [6] was 0.53 area %, the “Impurity by RRT 1.03” value [6] was 0.16 area % and the solubility (physchem; pH 7) was < 3 µg/mL. It also gave a solubility (physchem; pH 10) of 6 µg/mL (≈ 9.6 µM).
With H-Tyr-Pro-Trp-Phe-NH2 [SEQ ID NO:1] the “fold weaker binding to delta receptors than to mu opiate receptor” value (delta receptors) was “over 4000 fold”.
For Lactate, the “Solution stability, 2 weeks at 25° C.” value ([1]; 2 weeks at 25° C.) was 98.5 area %, the “Solution stability, 2 weeks at 40° C.” value ([1]; 2 weeks at 40° C.) was 98.5 area % and the “Impurity by RRT 0.21” value ([1]; solution, 2 weeks at 25° C.) was 0.59 area %. The “Impurity by RRT 0.89” value ([1]; solution, 2 weeks at 25° C.) was 0.05 area %, the “Impurity by RRT 0.92” value ([1]; solution, 2 weeks at 25° C.) was 0.11 area % and the “Impurity by RRT 0.95” value ([1]; solution, 2 weeks at 25° C.) was 0.14 area %. The “Impurity by RRT 1.02” value ([1]; solution, 2 weeks at 25° C.) was 0.49 area %, the “Impurity by RRT 1.03” value ([1]; solution, 2 weeks at 25° C.) was 0.15 area % and the “Impurity by RRT 0.21” value ([1]; solution, 2 weeks at 40° C.) was 0.62 area %. The “Impurity by RRT 0.89” value ([1]; solution, 2 weeks at 40° C.) was 0.04 area %, the “Impurity by RRT 0.92” value ([1]; solution, 2 weeks at 40° C.) was 0.04 area % and the “Impurity by RRT 0.95” value ([1]; solution, 2 weeks at 40° C.) was 0.14 area %. For the same compound, the “Impurity by RRT 0.98” value ([1]; solution, 2 weeks at 40° C.) was <0.03 area %, the “Impurity by RRT 1.02” value ([1]; solution, 2 weeks at 40° C.) was 0.50 area % and the “Impurity by RRT 1.03” value ([1]; solution, 2 weeks at 40° C.) was 0.16 area %. The “Impurity by RRT 1.32” value ([1]; solution, 2 weeks at 40° C.) was <0.03 area %, the “Impurity by RRT 2.39” value ([1]; solution, 2 weeks at 40° C.) was <0.03 area % and the “Solution stability, Time Zero” value [1] was 99.2 area %. The “decrease in area %, solid state stability” value [2, 7] was 0.2 area %, the “decrease in area %, solid state stability” value [2, 8] was 0.5 area % and the “Solid state stability, Time Zero” value [2] was 99.2 area %. The “Solid state stability, 2 weeks at 25° C.” value [2] was 99.0 area %, the “Solid state stability, 2 weeks at 60° C.” value [2] was 98.5 area % and the “Photostability, 2 weeks UV Exposed” value [3] was 98.6 area %. The “Photostability, 2 weeks Dark Control” value [3] was 99.0 area %, the “Photostability, Time Zero” value [3] was 99.2 area % and the “decrease in area %, photostability” value [3] was 0.6 area %. The “Impurity by RRT 0.87” value [4, 9] was <0.03 area %, the “Impurity by RRT 0.89” value [4, 9] was 0.24 area % and the “Impurity by RRT 0.92” value [4, 9] was 0.20 area %. For the same compound, the “Impurity by RRT 0.95” value [4, 9] was 0.13 area %, the “Impurity by RRT 1.02” value [4, 9] was 0.49 area % and the “Impurity by RRT 1.03” value [4, 9] was 0.15 area %. The “Impurity by RRT 1.18” value [4, 9] was <0.03 area %, the “Oxidation stability, 2 weeks Oxidation” value [4, 9] was 98.8 area % and the “Oxidation stability, Time Zero” value [4] was 99.2 area %. For the same compound, the DVS water uptake ([5]; 0-70% RH range) was 1-3 wt %, the DVS water uptake ([5]; by 90% RH) was “up to 6 wt %” and the “Impurity by RRT 0.89” value [6] was 0.04 area %. The “Impurity by RRT 0.92” value [6] was 0.08 area %, the “Impurity by RRT 0.95” value [6] was 0.10 area % and the “Impurity by RRT 1.02” value [6] was 0.49 area %. For the same compound, the “Impurity by RRT 1.03” value [6] was 0.13 area % and the “Impurity by RRT 1.18” value [6] was <0.03 area %.
